In ChEMBL document CHEMBL1201862, “PubChem BioAssay data set” (2004):
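Grown in 96-well plates, cells were treated for 48 hours with each compound at five concentrations. Insufficient inhibition: endpoint recorded as highest concentration tested. GI50 is the concentration that inhibits growth by half.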 Active and inactive are the calls of the source. Rule as the data show it: active = GI50 up to about 1.1 µM and inactive = higher.

Experiments:
Test in all cases: growth of human tumour cells (NCI), 48 h
[1] = tested on: A498
[2] = tested on: BT-549
[3] = tested on: CCRF-CEM
[4] = tested on: COLO 205
[5] = tested on: DU-145
[6] = tested on: EKVX
[7] = tested on: HCT-15
[8] = tested on: HT-29
[9] = tested on: KM12
[10] = tested on: MDA-MB-231
[11] = tested on: MDA-N
[12] = tested on: NCI-H460
[13] = tested on: SF-268
[14] = tested on: SF-539
[15] = tested on: SK-MEL-28
[16] = tested on: SK-MEL-5
[17] = tested on: SNB-75
[18] = tested on: U-251
[19] = tested on: SK-MEL-2

| Compound | GI50 [1] | GI50 [2] | GI50 [3] | GI50 [4] | GI50 [5] | GI50 [6] | GI50 [7] [µM] | GI50 [8] | GI50 [9] | GI50 [10] | GI50 [11] | GI50 [12] | GI50 [13] | GI50 [14] | GI50 [15] | GI50 [16] | GI50 [17] | GI50 [18] | GI50 [19] |
| --- | --- | --- | --- | --- | --- | --- | --- | --- | --- | --- | --- | --- | --- | --- | --- | --- | --- | --- | --- |
| COC(=O)c1c2c(cc3c1CC1(Cc4ccc(C(C)=O)cc4C1)C3)CCC2 (configuration not stated) | 31.2 µM (inactive) | 56.8 µM (inactive) | 27.7 µM (inactive) | 31.9 µM (inactive) | 79.3 µM (inactive) | 42.7 µM (inactive) | 31.8 | 19.5 µM (inactive) | 17.6 µM (inactive) | 20.4 µM (inactive) | 7.64 µM (inactive) | 42.2 µM (inactive) | 83.2 µM (inactive) | 85.3 µM (inactive) | 63.5 µM (inactive) | 18 µM (inactive) | 30.4 µM (inactive) | 50.7 µM (inactive) |  |
| O=c1[nH]c2cccc([N+](=O)[O-])c2c(=O)n1-c1ccc(Cl)cc1 | 13.9 µM (inactive) | 10.7 µM (inactive) | 17.4 µM (inactive) | 4.24 µM (inactive) | 15.1 µM (inactive) | 10.8 µM (inactive) | 12.1 | 7.03 µM (inactive) | 15.2 µM (inactive) | 15.8 µM (inactive) | 11.3 µM (inactive) | 4.4 µM (inactive) | 12.2 µM (inactive) | 12.3 µM (inactive) | 13.4 µM (inactive) | 9.71 µM (inactive) |  | 16.4 µM (inactive) | 9.86 µM (inactive) |
| O=C(c1ccccc1)N1C(=S)N(c2ccc([N+](=O)[O-])cc2)C(=N/c2ccccc2)/C1=N\c1ccccc1 |  | > 100 µM (inactive) |  | > 100 µM (inactive) | > 100 µM (inactive) | > 100 µM (inactive) | 65.2 | > 100 µM (inactive) | > 100 µM (inactive) | 39.8 µM (inactive) | 52.7 µM (inactive) | 72.1 µM (inactive) | > 100 µM (inactive) | > 100 µM (inactive) | > 100 µM (inactive) | > 100 µM (inactive) | 24.4 µM (inactive) | 44.8 µM (inactive) | > 100 µM (inactive) |
| CC(C)Oc1cc(O)c2c(c1)OCC=C2CCC(=O)O | 21.4 µM (inactive) | 31.3 µM (inactive) | 22.8 µM (inactive) | 16.2 µM (inactive) | 52.5 µM (inactive) | 17.3 µM (inactive) | 23.2 | 19.9 µM (inactive) | 31.5 µM (inactive) | 36.8 µM (inactive) | 21.7 µM (inactive) | 33 µM (inactive) | 40.6 µM (inactive) |  | 36 µM (inactive) | 18.4 µM (inactive) | 31 µM (inactive) | 67.1 µM (inactive) | 26.8 µM (inactive) |
| CC(C)C1=CC(=O)C(C)(C2C(O)CC3(C)C4CC=C5C(CCC(OC6OC(CO)C(O)C(O)C6OC6OC(C)C(O)C(O)C6O)C5(C)C)C4(C)C(=O)CC23C)O1 (configuration not stated) | > 100 µM (inactive) | > 100 µM (inactive) | > 100 µM (inactive) | > 100 µM (inactive) | > 100 µM (inactive) | > 100 µM (inactive) | > 100 | > 100 µM (inactive) | > 100 µM (inactive) | > 100 µM (inactive) | > 100 µM (inactive) | > 100 µM (inactive) | > 100 µM (inactive) | > 100 µM (inactive) | > 100 µM (inactive) | > 100 µM (inactive) | > 100 µM (inactive) | > 100 µM (inactive) |  |
| Cc1ccc(-c2nc3cc(Cl)ccc3[nH]2)cc1 |  | > 100 µM (inactive) | > 100 µM (inactive) | 71.6 µM (inactive) | > 100 µM (inactive) | > 100 µM (inactive) | 80.5 | 49 µM (inactive) | 46.8 µM (inactive) | > 100 µM (inactive) | 42.5 µM (inactive) | > 100 µM (inactive) | > 100 µM (inactive) | > 100 µM (inactive) | > 100 µM (inactive) | > 100 µM (inactive) | > 100 µM (inactive) | > 100 µM (inactive) | > 100 µM (inactive) |
| C1=CC(=[N+]2N=C(c3ccccc3)CC2c2ccccc2)C=CC1=C1SC(c2ccccc2)(c2ccccc2)c2ccccc21.[O-][Cl+3]([O-])([O-])[O-] (configuration not stated) | > 100 µM (inactive) | 78.5 µM (inactive) | > 100 µM (inactive) |  | > 100 µM (inactive) | > 100 µM (inactive) | > 100 | > 100 µM (inactive) | > 100 µM (inactive) | > 100 µM (inactive) | > 100 µM (inactive) | > 100 µM (inactive) | > 100 µM (inactive) | > 100 µM (inactive) | > 100 µM (inactive) | > 100 µM (inactive) |  | > 100 µM (inactive) | > 100 µM (inactive) |
| c1ccc(-c2cc(-c3cc(-c4ccccc4)no3)on2)cc1 | > 100 µM (inactive) | > 100 µM (inactive) | 27.4 µM (inactive) | 45.6 µM (inactive) | > 100 µM (inactive) | 72.6 µM (inactive) | > 100 | > 100 µM (inactive) | > 100 µM (inactive) | 24.1 µM (inactive) | > 100 µM (inactive) | 45.1 µM (inactive) | 66.1 µM (inactive) | 15.1 µM (inactive) | > 100 µM (inactive) | > 100 µM (inactive) |  | 29.2 µM (inactive) | > 100 µM (inactive) |
| COc1cc(N(CCC#N)CCC#N)ccc1C(=N/NC(=O)c1cc(Br)ccc1O)/N=N/c1ccccc1 |  | 20.8 µM (inactive) | 8.45 µM (inactive) | 16.3 µM (inactive) | 27.9 µM (inactive) | 21.1 µM (inactive) | 24.7 | 24.9 µM (inactive) | 28.2 µM (inactive) | 21.2 µM (inactive) | 30.1 µM (inactive) | 22.6 µM (inactive) | 28.5 µM (inactive) | 34.2 µM (inactive) | 27.9 µM (inactive) | 20.1 µM (inactive) | 27.7 µM (inactive) | 32.1 µM (inactive) | 26.7 µM (inactive) |
| COc1cccc(NC(=O)CC(=O)Nc2cccc(OC)c2)c1 | > 100 µM (inactive) | > 100 µM (inactive) | > 100 µM (inactive) | > 100 µM (inactive) | > 100 µM (inactive) | > 100 µM (inactive) | > 100 | > 100 µM (inactive) | > 100 µM (inactive) | > 100 µM (inactive) | > 100 µM (inactive) | > 100 µM (inactive) | > 100 µM (inactive) | > 100 µM (inactive) | > 100 µM (inactive) | > 100 µM (inactive) |  | > 100 µM (inactive) | > 100 µM (inactive) |
| Cc1cc2ccccc2n1CC(=O)NCC(C)C |  | > 100 µM (inactive) | > 100 µM (inactive) | > 100 µM (inactive) | > 100 µM (inactive) | > 100 µM (inactive) | > 100 | > 100 µM (inactive) | > 100 µM (inactive) | > 100 µM (inactive) | > 100 µM (inactive) | > 100 µM (inactive) | > 100 µM (inactive) | > 100 µM (inactive) | > 100 µM (inactive) | > 100 µM (inactive) | > 100 µM (inactive) | > 100 µM (inactive) | > 100 µM (inactive) |
| COc1cc2c(cc1OC)-c1cc3cc(OC)c(OC)cc3c(C)[n+]1CC2.O=C([O-])CS(=O)(=O)O | > 100 µM (inactive) | 41.7 µM (inactive) | 6.49 µM (inactive) | 31.6 µM (inactive) | > 100 µM (inactive) | > 100 µM (inactive) | > 100 | > 100 µM (inactive) | 26.3 µM (inactive) | > 100 µM (inactive) | 89.3 µM (inactive) | 13.8 µM (inactive) | 0.975 µM (active) | 76.6 µM (inactive) | > 100 µM (inactive) | 37.8 µM (inactive) |  | 15 µM (inactive) | > 100 µM (inactive) |
| Nn1c(-c2ccccc2)nn(C(=O)c2ccccc2)c1=O | > 100 µM (inactive) | > 100 µM (inactive) | > 100 µM (inactive) | > 100 µM (inactive) | > 100 µM (inactive) | > 100 µM (inactive) | > 100 | > 100 µM (inactive) | > 100 µM (inactive) | > 100 µM (inactive) | > 100 µM (inactive) | > 100 µM (inactive) | > 100 µM (inactive) | > 100 µM (inactive) | > 100 µM (inactive) | > 100 µM (inactive) | > 100 µM (inactive) | > 100 µM (inactive) |  |
| CN(C)S(=O)(=O)c1nc(Cl)c2nc[nH]c2n1 | > 100 µM (inactive) | > 100 µM (inactive) | > 100 µM (inactive) | > 100 µM (inactive) | > 100 µM (inactive) | > 100 µM (inactive) | > 100 | > 100 µM (inactive) | > 100 µM (inactive) | > 100 µM (inactive) | > 100 µM (inactive) |  | > 100 µM (inactive) |  | > 100 µM (inactive) | > 100 µM (inactive) | 36.9 µM (inactive) | > 100 µM (inactive) | > 100 µM (inactive) |
| CC(=O)C1C(=O)C(=O)N(c2ccc([N+](=O)[O-])cc2Cl)C1=O (configuration not stated) |  | > 100 µM (inactive) | > 100 µM (inactive) | > 100 µM (inactive) | > 100 µM (inactive) | > 100 µM (inactive) | > 100 | > 100 µM (inactive) | > 100 µM (inactive) | > 100 µM (inactive) | > 100 µM (inactive) | > 100 µM (inactive) | > 100 µM (inactive) | > 100 µM (inactive) | > 100 µM (inactive) | > 100 µM (inactive) | > 100 µM (inactive) | > 100 µM (inactive) | > 100 µM (inactive) |
